From publication PMC3778450, “Agonists and antagonists induce different palonosetron dissociation rates in 5-HT3A and 5-HT3AB receptors^” (Neuropharmacology, 2013)
pIC50, pKd, pKi: −log10 of the molar value. Read-outs that look alike come from different tables or passages of the source. One block for each molecule: values may come before it.

How the values were obtained:
5-HT3 receptors = test system: 5-HT3 receptors; design: method as in Wong et al., 1995; conditions: ref Wong et al., 1995, cited from earlier work
5-HT3A receptors [1] = molecular target: T1, 5-HT3A receptors (Homo sapiens, UniProt P46098); assay: Radioligand association and dissociation kinetics, HEK293 membranes; assay type: binding; design: dissociation k−1 (mean ± S.E.M): unit: h−1
T1 construct: expressed in transfected cells; host or cells: HEK293
T1 sequence (P46098 24-478): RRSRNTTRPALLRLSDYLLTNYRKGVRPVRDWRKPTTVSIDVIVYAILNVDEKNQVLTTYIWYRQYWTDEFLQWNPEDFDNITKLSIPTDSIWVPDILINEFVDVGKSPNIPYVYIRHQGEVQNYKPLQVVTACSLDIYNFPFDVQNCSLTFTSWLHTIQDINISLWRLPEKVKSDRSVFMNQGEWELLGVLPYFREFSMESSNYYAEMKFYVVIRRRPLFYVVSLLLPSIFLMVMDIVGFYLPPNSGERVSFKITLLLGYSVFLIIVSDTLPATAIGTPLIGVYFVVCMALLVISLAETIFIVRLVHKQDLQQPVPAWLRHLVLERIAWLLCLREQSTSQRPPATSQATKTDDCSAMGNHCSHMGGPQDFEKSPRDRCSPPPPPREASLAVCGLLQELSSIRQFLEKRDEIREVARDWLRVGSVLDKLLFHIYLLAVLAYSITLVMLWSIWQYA
Experimental: (§1) Human embryonic kidney (HEK) 293 cells were maintained on 90 mm tissue culture plates at 37 °C and 7% CO2 in a humidified atmosphere. They were cultured in DMEM:F12 (Dulbecco's Modified Eagle Medium/Nutrient Mix F12 (1:1)) with GlutaMAX™ I media containing 10% foetal calf serum and passaged when confluent. For radioligand binding studies cells in 90 mm dishes were transfected using PEI and incubated for 3–4 days before use. For functional studies cells were plated on 96 well plates, transfected using the Neon transfection system (Invitrogen) and incubated 1–2 days before assay. Mutagenesis reactions were performed using QuikChange (Agilent Technologies Inc., CA, USA) using human 5-HT3A or 5-HT3B receptor subunit cDNA (accession numbers: P46098 or O95264) in pcDNA3.1 (Invitrogen, Paisley, UK). Subunit numberings have been altered to the aligning residues in the mouse 5-HT3A receptor.
(§2) Briefly, transfected HEK293 cells were washed twice with phosphate buffered saline (PBS) at room temperature and scraped into 1 ml of ice-cold HEPES buffer (10 mM, pH 7.4) containing the following proteinase inhibitors (PI): 1 mM EDTA, 50 μg ml^−1 soybean trypsin inhibitor, 50 μg/ml bacitracin and 0.1 mM phenylmethylsulphonyl fluoride. […] Non-specific binding was determined using 10 μM quipazine. […] All samples were terminated by vacuum filtration using a Brandel cell harvester onto GF/B filters pre-soaked in 0.3% polyethyleneimine. Radioactivity was determined by scintillation counting using a Beckman LS6000SC (Fullerton, California, USA).
(§3) Data were analysed by iterative curve fitting using Prism software (GraphPad, San Diego, California, USA). Determination of Ki values was performed using the Cheng–Prusoff equation. Values are presented as mean ± SEM, n = 3–6.

[2] = molecular target: T2, 5-HT3 receptors expressed in oocytes (Homo sapiens, UniProt P46098); assay: Recovery from palonosetron inhibition after washout in oocytes; assay type: cell-based; conditions: after a 10 min wash; data not shown
T2 sequence (P46098 24-478): T1 sequence (P46098 24-478)

5-HT3AB receptors [3] = molecular target: T3, 5-HT3AB receptors (Homo sapiens, UniProt P46098); assay: [3H]granisetron competition binding, HEK293 membranes; conditions: displacement of [3H]granisetron
T3 construct: expressed in transfected cells; host or cells: HEK293
T3 sequence (P46098 24-478): T1 sequence (P46098 24-478)
T3 sequence (O95264 22-441 partner): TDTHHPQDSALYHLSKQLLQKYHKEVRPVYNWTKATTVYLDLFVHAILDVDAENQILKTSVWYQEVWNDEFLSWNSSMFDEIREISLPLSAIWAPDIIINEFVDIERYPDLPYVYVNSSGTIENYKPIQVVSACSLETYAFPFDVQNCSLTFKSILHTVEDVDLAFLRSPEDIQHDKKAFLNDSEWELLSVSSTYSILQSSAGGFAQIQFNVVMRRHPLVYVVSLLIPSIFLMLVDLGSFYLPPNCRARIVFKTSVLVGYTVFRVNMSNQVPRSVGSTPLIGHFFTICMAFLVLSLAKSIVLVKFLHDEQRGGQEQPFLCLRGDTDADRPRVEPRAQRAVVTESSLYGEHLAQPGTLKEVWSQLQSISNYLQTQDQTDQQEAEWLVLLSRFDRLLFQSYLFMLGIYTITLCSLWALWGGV
Experimental: as §1, §2, §3

5-HT3A receptors [4] = molecular target: T1, 5-HT3A receptors; assay: as above; conditions: displacement of [3H]granisetron
Experimental: as §1, §2, §3

5-HT3AB receptors [5] = molecular target: T3, 5-HT3AB receptors; assay: Radioligand association and dissociation kinetics, HEK293 membranes; assay type: binding; design: dissociation k−1 (mean ± S.E.M): unit not given here
Experimental: as §1, §2, §3

[6] = molecular target: 5-HT3 receptors, human hippocampus; design: method as in Wong et al., 1995; conditions: ref Wong et al., 1995; cited from earlier work
[7] = test system: 5-HT3 receptors, transfected HEK293 cells; design: method as in Rojas et al., 2008; conditions: ref Rojas et al., 2008; cited from earlier work
5-HT3AB receptors [8] = molecular target: T3, 5-HT3AB receptors; assay: Flexstation membrane potential dye assay, inhibition of 5-HT-induced responses; assay type: cell-based; conditions: for relative Fmax: relative to 0 palonosetron (100%), typical example
Experimental: as §1
(§4) Fluorescence was measured in a FLEXstation™ (Molecular Devices Ltd., Wokingham, UK) every 2 s for 200 s using the acquisition software SOFTmax® PRO v4.3.
as §3

5-HT3A receptors [9] = molecular target: T1, 5-HT3A receptors; assay: as above; assay type: cell-based; conditions: for relative Fmax: relative to 0 palonosetron (100%), typical example; for pIC50: read-out: IC50
Experimental: as §1, §4, §3

[10] = test system: 5-HT3 receptors, NG108-15 cells; design: method as in Wong et al., 1995; conditions: ref Wong et al., 1995; cited from earlier work
5-HT3AB receptors [11] = molecular target: T3, 5-HT3AB receptors; assay: [3H]palonosetron saturation binding, HEK293 membranes; conditions: 24 h, 4 °C
Experimental: as §1, with “Mutagenesis reactions were performed using QuikChange (Agilent Technologies Inc., CA, USA) using human 5-HT3A or 5-HT3B receptor subunit cDNA (accession numbers: P46098 or O95264) in pcDNA3.1 (Invitrogen, Paisley, UK). Subunit numberings have been altered to the aligning residues in the mouse 5-HT3A receptor.” left out
(§5) Briefly, transfected HEK293 cells were washed twice with phosphate buffered saline (PBS) at room temperature and scraped into 1 ml of ice-cold HEPES buffer (10 mM, pH 7.4) containing the following proteinase inhibitors (PI): 1 mM EDTA, 50 μg ml^−1 soybean trypsin inhibitor, 50 μg/ml bacitracin and 0.1 mM phenylmethylsulphonyl fluoride. […] Non-specific binding was determined using 10 μM quipazine. […] Radioactivity was determined by scintillation counting using a Beckman LS6000SC (Fullerton, California, USA).
(§6) Data were analysed by iterative curve fitting using Prism software (GraphPad, San Diego, California, USA). […]

5-HT3A receptors [12] = molecular target: T1, 5-HT3A receptors; assay: as above; conditions: 24 h, 4 °C
Experimental: as §1, with “Mutagenesis reactions were performed using QuikChange (Agilent Technologies Inc., CA, USA) using human 5-HT3A or 5-HT3B receptor subunit cDNA (accession numbers: P46098 or O95264) in pcDNA3.1 (Invitrogen, Paisley, UK). Subunit numberings have been altered to the aligning residues in the mouse 5-HT3A receptor.” left out
as §5, §6

[13] = test system: 5-HT3 receptor-expressing HEK293 cells; conditions: cited from earlier work; for [3H]palonosetron remaining: ref Rojas et al., 2010
[14] = agonist-induced dissociation (5-HT or quipazine)
[15] = displacing ligand MDL72222 (1 μM)
[16] = displacing ligand unlabelled palonosetron (100 nM)
[17] = palonosetron preincubated 45 min before 5-HT, HEK293 cells, read-out: pIC50 (converted)
[18] = displacing ligand 5-HT (100 μM)
[19] = displacing ligand quipazine (10 μM)

dissociation t1/2 (5-HT3A receptors [1]; [14]): > 10 h
dissociation t1/2 (5-HT3A receptors [1]; [15]): 2.3 h
dissociation t1/2 (5-HT3A receptors [1]; [16]): 1.5 h
original response recovered after washout [2]: < 10%
pIC50 (5-HT3AB receptors [3]; 4 °C): 9.15
pKi (5-HT3AB receptors [3]; Cheng–Prusoff): 9.46
pIC50 (5-HT3A receptors [4]; 4 °C): 9.22
pKi (5-HT3A receptors [4]; Cheng–Prusoff): 9.52
dissociation t1/2 (5-HT3AB receptors [5]; [14]): > 10 h
dissociation t1/2 (5-HT3AB receptors [5]; [15]): 1.7 h
dissociation t1/2 (5-HT3AB receptors [5]; [16]): 1.0 h
relative Fmax (5-HT3AB receptors [8]; 0.1 nM palonosetron): 62%
relative Fmax (5-HT3AB receptors [8]; 0.3 nM palonosetron): 28%
pIC50 (5-HT3AB receptors [8]; palonosetron preincubated 45 min before 5-HT, HEK293 cells, read-out: IC50): 9.74
IC50 (5-HT3AB receptors [8]; [17]): 0.186 nM
relative Fmax (5-HT3A receptors [9]; 0.1 nM palonosetron): 70%
relative Fmax (5-HT3A receptors [9]; 0.3 nM palonosetron): 40%
pIC50 (5-HT3A receptors [9]; palonosetron co-applied with 5-HT, HEK293 cells): 7.08
pIC50 (5-HT3A receptors [9]; palonosetron preincubated 45 min before 5-HT, HEK293 cells): 9.62
IC50 (5-HT3A receptors [9]; [17]): 0.245 nM
Structure (SMILES): O=C1c2cccc3c2[C@H](CCC3)CN1[C@@H]1CN2CCC1CC2 [Palonosetron, palonosetron]
dissociation t½ (5-HT3 receptors; previous studies): 8 to 10 min
pKd [6]: 9.82
pKd [7]: 9.70
pKd [10]: 10.30

association k (5-HT3A receptors [1]): 0.16 ± 0.03
association t1/2 (5-HT3A receptors [1]): 4.1 min
[3H]palonosetron remaining (5-HT3A receptors [1]; after 2 h dissociation in the presence of MDL72222): 67 ± 7%
dissociation k−1 (mean ± S.E.M) (5-HT3A receptors [1]; [18]): 0.032 ± 0.005
dissociation t1/2 (5-HT3A receptors [1]; [18]): 21.9 h
dissociation k−1 (mean ± S.E.M) (5-HT3A receptors [1]; [15]): 0.29 ± 0.03
dissociation k−1 (mean ± S.E.M) (5-HT3A receptors [1]; [19]): 0.056 ± 0.003
dissociation t1/2 (5-HT3A receptors [1]; [19]): 12.5 h
dissociation k−1 (mean ± S.E.M) (5-HT3A receptors [1]; [16]): 0.44 ± 0.05
dissociation t1/2 (5-HT3A receptors [1]; [16]): 1.5 h
pKd (5-HT3AB receptors [11]): 9.82
pKd (5-HT3A receptors [12]): 9.47
association k (5-HT3AB receptors [5]): 0.35 ± 0.06
association t1/2 (5-HT3AB receptors [5]): 2.0 min
dissociation k−1 (mean ± S.E.M) (5-HT3AB receptors [5]; [18]): 0.057 ± 0.008
dissociation t1/2 (5-HT3AB receptors [5]; [18]): 12.1 h
dissociation k−1 (mean ± S.E.M) (5-HT3AB receptors [5]; [15]): 0.41 ± 0.04
dissociation k−1 (mean ± S.E.M) (5-HT3AB receptors [5]; [19]): 0.068 ± 0.003
dissociation t1/2 (5-HT3AB receptors [5]; [19]): 10.1 h
dissociation k−1 (mean ± S.E.M) (5-HT3AB receptors [5]; [16]): 0.68 ± 0.08
Structure (SMILES): O=C1c2cccc3c2[C@H](CCC3)CN1[C@@H]1CN2CCC1CC2 [[^3H]palonosetron]
time to complete association (5-HT3 receptors; previously reported): under 10 min
[3H]palonosetron remaining associated ([13]; HEK293 cells after a 2.5 h wash, ref Rojas et al. (2008)): 53 ± 11%
[3H]palonosetron remaining ([13]; cell-free membrane preparation after a 60 min wash): 2%
[3H]palonosetron remaining ([13]; cells after a 60 min wash): 65%
